Broadly, the inhibition is the drop in the measured response relative to a control, in per cent.

In the first assay the target is T1, Human Recombinant Matriptase 2 (Homo sapiens, UniProt Q8IU80).
T1 construct: purchased Enzo Life Sciences (an in-house preparation was also used) ALX-201-752-1
T1 sequence (Q8IU80 1-811): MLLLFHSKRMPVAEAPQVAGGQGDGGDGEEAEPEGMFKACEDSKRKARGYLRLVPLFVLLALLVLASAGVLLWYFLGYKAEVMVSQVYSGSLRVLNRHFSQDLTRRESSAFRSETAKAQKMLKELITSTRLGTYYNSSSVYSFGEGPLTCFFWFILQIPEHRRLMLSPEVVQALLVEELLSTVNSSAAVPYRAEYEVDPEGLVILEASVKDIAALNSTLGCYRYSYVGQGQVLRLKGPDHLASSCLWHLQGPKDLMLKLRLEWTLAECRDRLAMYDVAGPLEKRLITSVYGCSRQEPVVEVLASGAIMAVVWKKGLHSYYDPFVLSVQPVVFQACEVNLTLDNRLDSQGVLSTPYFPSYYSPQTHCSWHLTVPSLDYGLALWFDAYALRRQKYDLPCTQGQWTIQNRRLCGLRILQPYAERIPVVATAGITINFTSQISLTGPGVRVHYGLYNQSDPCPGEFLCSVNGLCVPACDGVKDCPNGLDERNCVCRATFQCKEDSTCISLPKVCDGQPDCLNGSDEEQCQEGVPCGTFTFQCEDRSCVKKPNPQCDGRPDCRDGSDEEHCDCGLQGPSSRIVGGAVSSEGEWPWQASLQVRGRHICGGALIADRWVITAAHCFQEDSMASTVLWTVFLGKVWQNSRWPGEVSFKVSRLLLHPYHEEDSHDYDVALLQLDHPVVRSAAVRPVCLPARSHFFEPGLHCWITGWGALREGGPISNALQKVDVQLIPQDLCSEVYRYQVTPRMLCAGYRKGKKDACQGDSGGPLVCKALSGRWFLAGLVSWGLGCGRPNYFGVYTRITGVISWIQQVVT
The assay can be described thus: Matriptase 2 fluorescence based inhibition assay, Method B (50 mM TRIS pH 7.5, 150 mM NaCl, 0.01% gelatin). It counts as biochemical. Particulars: 1 uM compound; Assay Used = B. As for the experimental part: Test compounds were evaluated for their potential to inhibit Human Recombinant Matriptase 2 (in-house and commercial protein from Enzo Life Sciences—cat log -ALX-201-752-1) using fluorescence based assay. The concentration of Recombinant Matriptase 2 and the substrate used in the assay was: 7 nM (commercial) and 15 nM (Inhouse Matriptase 2) and 100 μM (Boc-Gln-Ala-Arg-7-amido-4-methyl coumarin hydrobromide—Cat log: B4153-Sigma and I-1550 from Bachem) respectively. The assay buffer used was 50 mM TRIS pH 7.5, 150 mM NaCl, 0.01% gelatin (G1393 Sigma). The assay was performed using 384 well black flat bottom plate from grenier (Cat log: 781076) at 25° C. The enzyme and compound preincubated for 30 mins, plate was read 60 mins after substrate addition at wavelength Ex: 360/Em:480 nm. The final assay volume of was 20 μl. Stock solution of compounds were initially prepared in DMSO and appropriate dilutions were made for screening and IC50 determination (final DMSO conc in the assay was 1%). All the measurements were carried out using the Spectramax M5, Molecular devices. The compounds were screened at 1 and 10 μM concentration and IC50 was determined for the interested compounds.
To determine IC50 values, dose response curves were generated by plotting percentage inhibition as a function of inhibitor concentration and the data was fitted to sigmoidal non-linear regression equation (variable slope) using Graph Pad prism software V7.
As to `CNC(=O)c1cc2ccc(C(=N)N)cc2n1Cc1cccc2ccccc12` [Compound I-483], the “Mar-2 % inhibition at 1 uM” value is reported as “C (C represents 50%≤I≤75%)”.

Staying with this assay, now noted: 1 uM compound; Assay Used = B (Method B); read-out: Mar-2 % inhibition at 1 uM.
As to `CC(C)(C)OC(=O)Nc1cc2ccc(C(=N)N)cc2n1Cc1cc(S(=O)(=O)c2ccccc2)cc2ccccc12` [Compound I-603, tert-butyl (6-carbamimidoyl-1-((3-(phenylsulfonyl)naphthalen-1-yl)methyl)-1H-indol-2-yl)carbamate], the inhibition at 1 µM lay in the range of 25 to 50%. On the same count and under the same terms, for `CS(=O)(=O)Nc1cc2ccc(C(=N)N)cc2n1Cc1cccc2ccccc12` [Compound I-749, 2-(methylsulfonamido)-1-(naphthalen-1-ylmethyl)-1H-indole-6-carboximidamide] the value was 50 to 75%; for `CCOC(=O)NC(=N)c1ccc2cc(C(=O)O)n(Cc3cccc4ccccc34)c2c1` [Compound I-712], 0 to 25%; for `N=C(N)c1ccc2c(c1)cc(C(=O)O)n2Cc1cccc2ccccc12` [Compound I-651], 0 to 25%. Same read-out and setting: for `CS(=O)(=O)N[C@H]1CC[C@@H](NC(=O)c2cc3ccc(C(=N)N)cc3n2Cc2cccc3ccccc23)CC1` [Compound I-728] the value was 75 to 100%; for `CCCCCCOC(=O)NC(=N)c1ccc2cc(C(=O)NC3CCN(C)CC3)n(Cc3cccc4ccccc34)c2c1` [Compound I-765], 0 to 25%.

For the molecule `COC(=O)c1cc2ccc(C(=N)N)cc2n1Cc1cc(O)cc2ccccc12` [Compound I-696], the inhibition at 1 µM was in the range of 50 to 75%. On the same count and under the same terms, for `N=C(N)c1ccc2cc(C(=O)O)n(Cc3cc(Nc4ccccc4)cc4ccccc34)c2c1` [Compound I-656] the value was 50 to 75%; for `N=C(N)c1ccc2cc(C(=O)O)n(Cc3cc(Oc4ccccc4)cc4ccccc34)c2n1` [Compound I-732], 25 to 50%. The same measure, in the same setting: for `N=C(N)c1ccc2cc(C(=O)N[C@H]3CC[C@H](N)CC3)n(Cc3cc(OCCc4ccccc4)cc4ccccc34)c2c1` [Compound I-737] the value was 75 to 100%. Still for that read-out and setting: for `N=C(N)c1cc2c(cn1)cc(C(=O)O)n2Cc1cccc2ccccc12` [Compound I-706] the value was 25 to 50%; for `CNC(=O)c1cc2ccc(C(=N)N)cc2n1Cc1cccc2ccccc12` [Compound I-609], 50 to 75%; for `N=C(N)c1ccc2cc(-c3nnnn3CCO)n(Cc3cccc4ccccc34)c2c1` [Compound I-710], 75 to 100%. Take `N=C(N)c1ccc2cc(C(=O)N[C@H]3CC[C@H](N)CC3)n(Cc3cc(S(=O)(=O)c4ccccc4)cc4ccccc34)c2c1` [Compound I-727]: the inhibition at 1 µM lay within 75 to 100%. The same measure, in the same setting: for `CC1CCCCN1CCCNC(=O)c1cc2ccc(C(=N)N)cc2n1Cc1cccc2ccccc12` (centres unmarked) [Compound I-683] the value was 50 to 75%. Still for that read-out and setting: for `N=C(N)c1ccc2cc(C(=O)NCCN)n(Cc3cc(Oc4ccccc4)cc4ccccc34)c2c1` [Compound I-634] the value was 75 to 100%; for `Cc1ccc(S(=O)(=O)Oc2cc(Cn3c(C(=O)N[C@H]4CC[C@H](N)CC4)cc4ccc(C(=N)N)cc43)c3ccccc3c2)cc1` [Compound I-614], 75 to 100%; for `N=C(N)c1ccc2cc(-c3ncco3)n(Cc3cccc4ccccc34)c2c1` [Compound I-748, 1-(naphthalen-1-ylmethyl)-2-(oxazol-2-yl)-1H-indole-6-carboximidamide], 75 to 100%. Still for that read-out and setting: for `N=C(N)c1ccc2cc(C(=O)N[C@H]3CC[C@H](Nc4ncccn4)CC3)n(Cc3cccc4ccccc34)c2c1` [Compound I-741] the value was 50 to 75%; for `COc1cccc(Oc2cc(Cn3c(C(=O)O)cc4ccc(C(=N)N)cc43)c3ccccc3c2)c1` [Compound I-686], 50 to 75%; for `CCOC(=O)c1cc2ccc(C(=N)NC(=O)OCC(C)C)nc2n1Cc1cccc2ccccc12` [Compound I-676], 0 to 25%.

The assay is the same for the next values; noted with them: 1 uM compound; Assay Used = B; read-out: Mar-2 % inhibition at 1 uM.
On to `N=C(N)c1ccc2cc(C(=O)N[C@H]3CC[C@H](N)CC3)n(Cc3cccc4cnccc34)c2c1` [Compound I-504], for which the inhibition at 1 µM lay in the range of 50 to 75%. Still for that read-out and setting: for `N=C(N)c1ccc2c(C(=O)N[C@H]3CC[C@H](N)CC3)cn(Cc3ccc4ccccc4c3)c2c1` [Compound I-520] the value was 0 to 25%; for `CNC(=O)c1cc2ccc(C(=N)N)cc2n1Cc1cc(Oc2ncccn2)cc2ccccc12` [Compound I-578], 75 to 100%. On the same count and under the same terms, for `NCc1ccc2cc(C(=O)NCC3CCNCC3)n(-c3ccc4ccccc4c3)c2c1` [Compound I-537] the value was 0 to 25%; for `NC(=O)c1ccc2cc(C(=O)NC3CCNCC3)n(Cc3cccc4ccccc34)c2c1` [Compound I-455, 1-(naphthalen-1-ylmethyl)-N2-(piperidin-4-yl)-1H-indole-2,6-dicarboxamide], 0 to 25%; for `N=C(N)c1ccc2cc(-c3nnc([C@H]4CC[C@H](N)CC4)s3)n(Cc3cccc4ccccc34)c2c1` [Compound I-526, 2-(5-((1r,4r)-4-aminocyclohexyl)-1,3,4-thiadiazol-2-yl)-1-(naphthalen-1-ylmethyl)-1H-indole-6-carboximidamide], 75 to 100%. Same read-out and setting: for `COC(=O)c1cc2ccc(C(=N)N)cc2n1Cc1cccc2ccccc12` [Compound I-486, Methyl 6-carbamimidoyl-1-(naphthalen-1-ylmethyl)-1H-indole-2-carboxylate] the value was 25 to 50%. Consider `N=C(N)c1ccc2[nH]c(C(=O)O)c(Cc3cc(Oc4ccccc4)cc4ccccc34)c2c1` [Compound I-588], for which the inhibition at 1 µM lay in the range of 25 to 50%.

For the molecule `N=C(N)c1ccc2cc(C(=O)N[C@H]3CC[C@@H](N)CC3)n(Cc3cccc4ccccc34)c2c1` [Compound I-439], the inhibition at 1 µM fell in the range of 75 to 100%. The same measure, in the same setting: for `N=C(N)c1ccc2cc(C(=O)NC3CCNC(=O)C3)n(Cc3cccc4ccccc34)c2c1` (centres unmarked) [Compound I-477] the value was 50 to 75%; for `N=C(N)c1ccc2cc(C(=O)NCC3(C(N)=O)CCCCC3)n(Cc3cccc4ccccc34)c2c1` [Compound I-464], 50 to 75%; for `N=C(N)c1ccc2cc(C(=O)NCC3CCNCC3)n(-c3ccc4ccccc4c3)c2c1` [Compound I-490, 6-carbamimidoyl-1-(naphthalen-2-yl)-N-(piperidin-4-ylmethyl)-1H-indole-2-carboxamide], 50 to 75%. On to `COC(=O)[C@H]1CC[C@H](NC(=O)c2cc3ccc(C(=N)N)cc3n2Cc2cccc3ccccc23)CC1` [Compound I-471], for which the inhibition at 1 µM was in the range of 25 to 50%. In the case of `N=C(N)c1ccc2cc(C(=O)NC3CCNC(=O)C3)n(Cc3cc(Oc4ncccn4)cc4ccccc34)c2c1` (racemic) [Compound I-560], the inhibition at 1 µM was in the range of 50 to 75%.

Take `CC(C)(C)OC(=O)N[C@H]1CC[C@H](NC(=O)c2cc3ccc(CN)cc3n2Cc2cccc3ccccc23)CC1` [Compound I-530, tert-butyl ((1r,4r)-4-(6-(aminomethyl)-1-(naphthalen-1-ylmethyl)-1H-indole-2-carboxamido)cyclohexyl) carbamate]: the inhibition at 1 µM lay within 0 to 25%. On the same count and under the same terms, for `CN1CCC(CNC(=O)c2cc3ccc(C(=N)N)cc3n2Cc2cc(Oc3ncccn3)cc3ccccc23)CC1` [Compound I-590] the value was 75 to 100%; for `N=C(N)c1ccc2cc(C(=O)N[C@H]3CC[C@H](N)CC3)n(Cc3ccccc3-c3ccccc3)c2c1` [Compound I-510], 0 to 25%.

The same assay, now with this note: compound at 1 uM; Assay Used: B; read-out: Mar-2 % inhibition at 1 uM.
In the case of `CN(C)C(=O)c1ccc(Cn2c(C(=O)N[C@H]3CC[C@H](N)CC3)cc3ccc(C(=N)N)cc32)c2ccccc12` [Compound I-798], the inhibition at 1 µM is 50 to 75%.

Turning to `N=C(N)c1ccc2cc(C(=O)N[C@H]3CC[C@H](N)CC3)n(Cc3cc(CO)cc4ccccc34)c2c1` [Compound I-800, N-((1r,4r)-4-aminocyclohexyl)-6-carbamimidoyl-1-((3-(hydroxymethyl)naphthalen-1-yl)methyl)-1H-indole-2-carboxamide], the inhibition at 1 µM was in the range of 25 to 50%.

(Values after patent publication US12428415B2, “Matriptase 2 inhibitors and uses thereof” (Disc Medicine, Inc., priority 2018, dated 2025).)
